Here are results for 1 compound from paper PMC9865587, “Inhibitory Effects of 2-Aminoethoxydiphenyl Borate (2-APB) on Three KV1 Channel Currents” (Molecules, 2023).

SMILES strings stand for the structures.

Common to all, as to assay: cell-based
In assay [1] the target is T1, KV1.4 (Homo sapiens, UniProt P22459, V556A).
T1 construct: gene KCNA4
Particulars: CHO.

Assay [2] deals with T2, KV1.4 (Homo sapiens, UniProt P22459, T551A).
T2 construct: gene KCNA4
Particulars: CHO.

Assay [3] addresses T3, KV1.4 (Homo sapiens, UniProt P22459, L554A).
T3 construct: gene KCNA4
Particulars: CHO.

Assay [4] deals with T4, KV1.2 (Homo sapiens, UniProt P16389).
T4 construct: gene KCNA2

Assay [5] concerns the target T5, KV1.4 (Homo sapiens, UniProt P22459, V558A).
T5 construct: gene KCNA4
Particulars: CHO.

For assay [6], the target named is T6, KV1.4 (Homo sapiens, UniProt P22459).
T6 construct: gene KCNA4

The target of assay [7] is T7, KV1.4 (Homo sapiens, UniProt P22459, N-TERMINALTRUNCATION(1–61DELETED)).
T7 construct: gene KCNA4

Assay [8] concerns the target T8, KV1.4 (Homo sapiens, UniProt P22459, A553V).
T8 construct: gene KCNA4
Particulars: CHO.

Assay [9] addresses T9, KV1.3 (Homo sapiens, UniProt P22001).
T9 construct: gene KCNA3

Assay [10] concerns the target T10, KV1.4 (Homo sapiens, UniProt P22459, V549A).
T10 construct: gene KCNA4
Particulars: CHO.

T5 sequence (P22459 whole entry V558A): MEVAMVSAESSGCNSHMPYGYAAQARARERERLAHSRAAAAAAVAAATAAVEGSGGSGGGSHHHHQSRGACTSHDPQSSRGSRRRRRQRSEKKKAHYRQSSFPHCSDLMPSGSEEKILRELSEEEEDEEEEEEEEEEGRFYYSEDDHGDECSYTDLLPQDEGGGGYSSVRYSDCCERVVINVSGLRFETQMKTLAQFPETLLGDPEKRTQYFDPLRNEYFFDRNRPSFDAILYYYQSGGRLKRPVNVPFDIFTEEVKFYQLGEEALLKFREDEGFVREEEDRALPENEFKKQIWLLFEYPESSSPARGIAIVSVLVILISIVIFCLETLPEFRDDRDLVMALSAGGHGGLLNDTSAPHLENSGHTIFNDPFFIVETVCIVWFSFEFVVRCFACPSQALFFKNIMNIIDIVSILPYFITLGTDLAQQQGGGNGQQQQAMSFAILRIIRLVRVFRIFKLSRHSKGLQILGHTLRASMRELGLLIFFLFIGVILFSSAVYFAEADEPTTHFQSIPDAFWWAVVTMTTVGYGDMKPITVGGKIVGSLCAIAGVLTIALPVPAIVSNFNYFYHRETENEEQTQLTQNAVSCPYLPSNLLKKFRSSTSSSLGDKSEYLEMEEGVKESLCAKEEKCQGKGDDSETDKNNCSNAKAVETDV
T8 sequence (P22459 whole entry A553V): as the sequence (P22459 whole entry V558A) above, with A553V, A558V counted along it
T3 sequence (P22459 whole entry L554A): as the sequence (P22459 whole entry V558A) above, with L554A, A558V counted along it
T1 sequence (P22459 whole entry V556A): as the sequence (P22459 whole entry V558A) above, with V556A, A558V counted along it
T9 sequence (P22001 whole entry): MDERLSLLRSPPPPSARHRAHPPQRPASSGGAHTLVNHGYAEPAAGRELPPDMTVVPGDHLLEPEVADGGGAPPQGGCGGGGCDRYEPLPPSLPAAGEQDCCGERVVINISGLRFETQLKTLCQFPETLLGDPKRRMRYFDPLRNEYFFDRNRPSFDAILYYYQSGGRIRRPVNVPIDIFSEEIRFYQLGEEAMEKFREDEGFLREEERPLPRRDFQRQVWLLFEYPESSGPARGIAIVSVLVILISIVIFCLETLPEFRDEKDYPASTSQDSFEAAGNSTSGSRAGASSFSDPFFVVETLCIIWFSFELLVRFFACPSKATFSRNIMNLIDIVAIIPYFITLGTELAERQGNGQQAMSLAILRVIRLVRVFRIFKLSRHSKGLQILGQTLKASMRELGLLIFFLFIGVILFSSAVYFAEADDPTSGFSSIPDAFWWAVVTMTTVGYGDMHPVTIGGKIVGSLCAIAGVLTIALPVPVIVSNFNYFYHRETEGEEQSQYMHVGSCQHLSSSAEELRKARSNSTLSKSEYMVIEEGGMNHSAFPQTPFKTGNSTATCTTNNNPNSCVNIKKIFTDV
T7 sequence (P22459 62-653, stated change not applied): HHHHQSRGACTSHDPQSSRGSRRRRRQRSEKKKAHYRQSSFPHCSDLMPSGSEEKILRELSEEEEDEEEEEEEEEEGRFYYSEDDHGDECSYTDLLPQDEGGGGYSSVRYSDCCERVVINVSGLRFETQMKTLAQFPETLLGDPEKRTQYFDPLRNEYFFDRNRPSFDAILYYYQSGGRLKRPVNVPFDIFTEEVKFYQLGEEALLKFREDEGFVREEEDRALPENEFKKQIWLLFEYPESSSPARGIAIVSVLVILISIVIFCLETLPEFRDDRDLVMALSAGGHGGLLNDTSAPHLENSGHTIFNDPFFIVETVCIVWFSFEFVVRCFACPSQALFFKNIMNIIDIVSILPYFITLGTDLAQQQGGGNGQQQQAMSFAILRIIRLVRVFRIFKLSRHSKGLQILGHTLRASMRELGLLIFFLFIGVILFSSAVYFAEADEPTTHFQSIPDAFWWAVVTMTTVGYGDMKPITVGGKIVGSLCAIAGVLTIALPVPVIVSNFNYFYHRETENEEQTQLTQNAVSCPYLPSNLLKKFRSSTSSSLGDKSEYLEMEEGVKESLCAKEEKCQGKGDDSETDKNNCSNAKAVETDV
T6 sequence (P22459 whole entry): as the sequence (P22459 whole entry V558A) above, with A558V counted along it
T10 sequence (P22459 whole entry V549A): as the sequence (P22459 whole entry V558A) above, with V549A, A558V counted along it
T4 sequence (P16389 whole entry): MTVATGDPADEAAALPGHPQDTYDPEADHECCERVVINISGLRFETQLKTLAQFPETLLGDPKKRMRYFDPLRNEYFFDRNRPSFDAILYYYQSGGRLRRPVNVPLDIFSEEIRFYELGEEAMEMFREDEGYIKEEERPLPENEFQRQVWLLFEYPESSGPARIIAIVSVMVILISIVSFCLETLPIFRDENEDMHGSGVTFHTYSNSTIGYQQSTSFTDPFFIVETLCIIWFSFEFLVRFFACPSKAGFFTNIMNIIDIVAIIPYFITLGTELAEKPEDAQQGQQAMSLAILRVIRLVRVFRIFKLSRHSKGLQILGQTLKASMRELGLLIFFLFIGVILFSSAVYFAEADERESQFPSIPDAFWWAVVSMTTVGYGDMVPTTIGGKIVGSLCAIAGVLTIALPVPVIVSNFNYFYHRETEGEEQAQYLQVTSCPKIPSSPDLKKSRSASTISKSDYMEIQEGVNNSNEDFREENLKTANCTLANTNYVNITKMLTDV
T2 sequence (P22459 whole entry T551A): as the sequence (P22459 whole entry V558A) above, with T551A, A558V counted along it

The inhibition is the drop in the measured response relative to a control, in per cent. The term IC50 denotes the concentration that gives 50% inhibition. High values mean weaker potency, low ones greater potency. For the compound `NCCOB(c1ccccc1)c1ccccc1` [2-APB], the inhibition at 100 µM in assay [1] worked out at 60.8%; in assay [2], 37.8%; in assay [3], 32.9%; in assay [5], 57.3%; in [8], 18.4%; in assay [10], 44.1%. Moreover, the IC50 in assay [4] was 310 µM; in assay [6], 67.3 µM; in [7], 310 µM; in [9] it was 455 µM.
